Assay results reported in patent publication US20260285850A1, “SUBSTITUTED OXAZOLIDINONES AND IMIDAZOLINONES AS HERBICIDES” (FMC CORPORATION, priority 2023, published 2026).

How the values were obtained:
Assay type in all cases: in vivo
[1] = tested on: barnyardgrass (Echinochloa crus-galli); test: Test A preemergence soil spray, visual injury rating 0-100; conditions: 10 days, 0 = no effect, 100 = complete control
How it was run: (§1)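 Directed preemergence spray onto seeded soil or postemergence spray onto 2-10 cm plants (loam plus sand); compound carried in surfactant-containing non-phytotoxic solvent. Injury rated by eye after 10 d greenhouse growth; 0 = no effect, 100 = complete control.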

[2] = tested on: blackgrass (Alopecurus myosuroides); test: as above; conditions: 10 days, 0 = no effect, 100 = complete control
How it was run: as §1

corn (Zea mays) [3] = test: as above; conditions: 10 days, 0 = no effect, 100 = complete control
How it was run: as §1

[4] = tested on: foxtail, giant (giant foxtail, Setaria faberi); test: as above; conditions: 10 days, 0 = no effect, 100 = complete control
How it was run: as §1

kochia (Bassia scoparia) [5] = test: as above; conditions: 10 days, 0 = no effect, 100 = complete control
How it was run: as §1

[6] = tested on: oat, wild (wild oat, Avena fatua); test: as above; conditions: 10 days, 0 = no effect, 100 = complete control
How it was run: as §1

[7] = tested on: palmer (palmer amaranth, palmer pigweed, Amaranthus palmeri); test: as above; conditions: 10 days, 0 = no effect, 100 = complete control
How it was run: as §1

[8] = tested on: ragweed (common ragweed, Ambrosia artemisiifolia); test: as above; conditions: 10 days, 0 = no effect, 100 = complete control
How it was run: as §1

[9] = tested on: ryegrass, Italian (italian ryegrass, Lolium multiflorum); test: as above; conditions: 10 days, 0 = no effect, 100 = complete control
How it was run: as §1

soybean (Glycine max) [10] = test: as above; conditions: 10 days, 0 = no effect, 100 = complete control
How it was run: as §1

[11] = tested on: wheat (Triticum aestivum); test: as above; conditions: 10 days, 0 = no effect, 100 = complete control
How it was run: as §1

[12] = tested on: barnyardgrass (Echinochloa crus-galli); test: Test A postemergence application, visual injury rating 0-100; conditions: Postemergence, 10 days; for Barnyardgrass plant response rating (0 to 100 scale): 0 is no effect, 100 is complete control
How it was run: as §1

[13] = tested on: blackgrass (Alopecurus myosuroides); test: as above; conditions: Postemergence, 10 days; for Blackgrass plant response rating (0 to 100 scale): 0 is no effect, 100 is complete control
How it was run: as §1

corn (Zea mays) [14] = test: as above; conditions: Postemergence, 10 days, 0 is no effect, 100 is complete control
How it was run: as §1

[15] = tested on: foxtail, giant (giant foxtail, Setaria faberi); test: as above; conditions: 10 days; for Foxtail, Giant plant response rating (0 to 100 scale): 0 is no effect, 100 is complete control
How it was run: as §1

[16] = tested on: galium (catchweed bedstraw, Galium aparine); test: as above; conditions: Postemergence, 10 days; for Galium plant response rating (0 to 100 scale): 0 is no effect, 100 is complete control
How it was run: as §1

[17] = tested on: horseweed (Erigeron canadensis); test: as above; conditions: Postemergence, 10 days; for Horseweed plant response rating (0 to 100 scale): 0 is no effect, 100 is complete control
How it was run: as §1

kochia (Bassia scoparia) [18] = test: as above; conditions: Postemergence, 10 days; for Kochia plant response rating (0 to 100 scale): 0 is no effect, 100 is complete control
How it was run: as §1

[19] = tested on: oat, wild (wild oat, Avena fatua); test: as above; conditions: Postemergence, 10 days, 0 is no effect, 100 is complete control
How it was run: as §1

[20] = tested on: palmer (palmer amaranth, palmer pigweed, Amaranthus palmeri); test: as above; conditions: Postemergence, 10 days; for Amaranth, Palmer / Pigweed, Palmer plant response rating (0 to 100 scale): 0 is no effect, 100 is complete control
How it was run: as §1

[21] = tested on: ragweed (common ragweed, Ambrosia artemisiifolia); test: as above; conditions: Postemergence, 10 days; for Ragweed plant response rating (0 to 100 scale): 0 is no effect, 100 is complete control
How it was run: as §1

[22] = tested on: ryegrass, Italian (italian ryegrass, Lolium multiflorum); test: as above; conditions: Postemergence, 10 days; for Ryegrass, Italian plant response rating (0 to 100 scale): 0 is no effect, 100 is complete control
How it was run: as §1

soybean (Glycine max) [23] = test: as above; conditions: Postemergence, 10 days, 0 is no effect, 100 is complete control
How it was run: as §1

[24] = tested on: wheat (Triticum aestivum); test: as above; conditions: Postemergence, 10 days, 0 is no effect, 100 is complete control
How it was run: as §1

[25] = tested on: barnyardgrass (Echinochloa crusgalli); test: Test B flooded paddy test, visual plant response rating 0-100; conditions: 250 g ai/ha, Flood, applied to paddy water, evaluated after 13 days
How it was run: (§2)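 Visual scores versus untreated controls were recorded 13 days after treatment of greenhouse-held plants. At the 2-leaf stage, pots were flooded 3 cm above the soil surface and compounds added straight to the water.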

[26] = tested on: ducksalad (Heteranthera limosa); test: as above; conditions: 250 g ai/ha, Flood, applied to paddy water, evaluated after 13 days
How it was run: as §2

rice (Oryza sativa) = test: as above; conditions: 250 g ai/ha, Flood, applied to paddy water, evaluated after 13 days
How it was run: as §2

[27] = tested on: sedge, umbrella (small-flower umbrella sedge, Cyperus difformis); test: as above; conditions: 250 g ai/ha, Flood, applied to paddy water, evaluated after 13 days
How it was run: as §2

Structure (SMILES): CC1(C(=O)NC2C=CC(C(=O)NS(C)(=O)=O)C2)CN(c2cc(F)cc(F)c2)C(=O)O1 (stereo not drawn) [Compound 30]
- Barnyardgrass plant response rating (0 to 100 scale) ([1]; 125 g ai/ha): 60
- Barnyardgrass plant response rating (0 to 100 scale) ([1]; 500 g ai/ha): 100
- Blackgrass plant response rating (0 to 100 scale) ([2]; 125 g ai/ha): 80
- Blackgrass plant response rating (0 to 100 scale) ([2]; 500 g ai/ha): 90
- Corn plant response rating (0 to 100 scale) (corn (Zea mays) [3]; 125 g ai/ha): 70
- Corn plant response rating (0 to 100 scale) (corn (Zea mays) [3]; 500 g ai/ha): 80
- Foxtail, Giant plant response rating (0 to 100 scale) ([4]; 125 g ai/ha): 30
- Foxtail, Giant plant response rating (0 to 100 scale) ([4]; 500 g ai/ha): 100
- Kochia plant response rating (0 to 100 scale) (kochia (Bassia scoparia) [5]; 125 g ai/ha): 90
- Kochia plant response rating (0 to 100 scale) (kochia (Bassia scoparia) [5]; 500 g ai/ha): 90
- Oat, Wild plant response rating (0 to 100 scale) ([6]; 125 g ai/ha): 60
- Oat, Wild plant response rating (0 to 100 scale) ([6]; 500 g ai/ha): 90
- Amaranth, Palmer plant response rating (0 to 100 scale) ([7]; 125 g ai/ha): 80
- Amaranth, Palmer plant response rating (0 to 100 scale) ([7]; 500 g ai/ha): 100
- Ragweed plant response rating (0 to 100 scale) ([8]; 125 g ai/ha): 40
- Ragweed plant response rating (0 to 100 scale) ([8]; 500 g ai/ha): 60
- Ryegrass, Italian plant response rating (0 to 100 scale) ([9]; 125 g ai/ha): 70
- Ryegrass, Italian plant response rating (0 to 100 scale) ([9]; 500 g ai/ha): 90
- Soybean plant response rating (0 to 100 scale) (soybean (Glycine max) [10]; 125 g ai/ha): 0
- Soybean plant response rating (0 to 100 scale) (soybean (Glycine max) [10]; 500 g ai/ha): 80
- Wheat plant response rating (0 to 100 scale) ([11]; 125 g ai/ha): 90
- Wheat plant response rating (0 to 100 scale) ([11]; 500 g ai/ha): 100
- Barnyardgrass plant response rating (0 to 100 scale) ([12]; 125 g ai/ha): 100
- Barnyardgrass plant response rating (0 to 100 scale) ([12]; 500 g ai/ha): 100
- Blackgrass plant response rating (0 to 100 scale) ([13]; 125 g ai/ha): 70
- Blackgrass plant response rating (0 to 100 scale) ([13]; 500 g ai/ha): 100
- Corn plant response rating (0 to 100 scale) (corn (Zea mays) [14]; 125 g ai/ha): 60
- Corn plant response rating (0 to 100 scale) (corn (Zea mays) [14]; 500 g ai/ha): 90
- Foxtail, Giant plant response rating (0 to 100 scale) ([15]; 125 g ai/ha): 90
- Foxtail, Giant plant response rating (0 to 100 scale) ([15]; 500 g ai/ha): 90
- Galium plant response rating (0 to 100 scale) ([16]; 125 g ai/ha): 80
- Galium plant response rating (0 to 100 scale) ([16]; 500 g ai/ha): 80
- Horseweed plant response rating (0 to 100 scale) ([17]; 125 g ai/ha): 30
- Horseweed plant response rating (0 to 100 scale) ([17]; 500 g ai/ha): 80
- Kochia plant response rating (0 to 100 scale) (kochia (Bassia scoparia) [18]; 125 g ai/ha): 70
- Kochia plant response rating (0 to 100 scale) (kochia (Bassia scoparia) [18]; 500 g ai/ha): 80
- Oat, Wild plant response rating (0 to 100 scale) ([19]; 125 g ai/ha): 100
- Oat, Wild plant response rating (0 to 100 scale) ([19]; 500 g ai/ha): 100
- Amaranth, Palmer / Pigweed, Palmer plant response rating (0 to 100 scale) ([20]; 125 g ai/ha): 90
- Amaranth, Palmer / Pigweed, Palmer plant response rating (0 to 100 scale) ([20]; 500 g ai/ha): 90
- Ragweed plant response rating (0 to 100 scale) ([21]; 125 g ai/ha): 20
- Ragweed plant response rating (0 to 100 scale) ([21]; 500 g ai/ha): 80
- Ryegrass, Italian plant response rating (0 to 100 scale) ([22]; 125 g ai/ha): 80
- Ryegrass, Italian plant response rating (0 to 100 scale) ([22]; 500 g ai/ha): 100
- Soybean plant response rating (0 to 100 scale) (soybean (Glycine max) [23]; 125 g ai/ha): 60
- Soybean plant response rating (0 to 100 scale) (soybean (Glycine max) [23]; 500 g ai/ha): 70
- Wheat plant response rating (0 to 100 scale) ([24]; 125 g ai/ha): 80
- Wheat plant response rating (0 to 100 scale) ([24]; 500 g ai/ha): 80
- Plant response rating, Barnyardgrass (0 to 100 scale, 0 is no effect and 100 is complete control) [25]: 15
- Plant response rating, Ducksalad (0 to 100 scale, 0 is no effect and 100 is complete control) [26]: 65
- Plant response rating, Rice (0 to 100 scale, 0 is no effect and 100 is complete control) (rice (Oryza sativa)): 0
- Plant response rating, Sedge, Umbrella (0 to 100 scale, 0 is no effect and 100 is complete control) [27]: 95

Structure (SMILES): CSCCOC(=O)[C@@H]1C=C[C@H](NC(=O)C2(C)CN(c3cc(F)cc(F)c3)C(=O)O2)C1 (stereo partly drawn) [Compound 48, 2-(Methylthio)ethyl (1S,4R)-4-[[[3-(3,5-difluorophenyl)-5-methyl-2-oxo-5-oxazolidinyl]carbonyl]amino]-2-cyclopentene-1-carboxylate]
- Barnyardgrass plant response rating (0 to 100 scale) ([1]; 1000 g ai/ha): 100
- Blackgrass plant response rating (0 to 100 scale) ([2]; 1000 g ai/ha): 90
- Foxtail, Giant plant response rating (0 to 100 scale) ([4]; 1000 g ai/ha): 100
- Kochia plant response rating (0 to 100 scale) (kochia (Bassia scoparia) [5]; 1000 g ai/ha): 100
- Amaranth, Palmer / Pigweed, Palmer plant response rating (0 to 100 scale) ([7]; 1000 g ai/ha): 100
- Ragweed plant response rating (0 to 100 scale) ([8]; 1000 g ai/ha): 90
- Ryegrass, Italian plant response rating (0 to 100 scale) ([9]; 1000 g ai/ha): 100
- Barnyardgrass plant response rating ([12]; 1000 g ai/ha, 0 to 100 scale): 90
- Blackgrass plant response rating ([13]; 1000 g ai/ha, 0 to 100 scale): 100
- Foxtail, Giant plant response rating ([15]; 1000 g ai/ha, 0 to 100 scale): 90
- Galium plant response rating ([16]; 1000 g ai/ha, 0 to 100 scale): 80
- Horseweed plant response rating ([17]; 1000 g ai/ha, 0 to 100 scale): 70
- Kochia plant response rating (kochia (Bassia scoparia) [18]; 1000 g ai/ha, 0 to 100 scale): 70
- Amaranth, Palmer plant response rating ([20]; 1000 g ai/ha, 0 to 100 scale): 90
- Ragweed plant response rating ([21]; 1000 g ai/ha, 0 to 100 scale): 70
- Ryegrass, Italian plant response rating ([22]; 1000 g ai/ha, 0 to 100 scale): 90
- Plant response rating, Barnyardgrass (0 to 100 scale, 0 is no effect and 100 is complete control) [25]: 70
- Plant response rating, Ducksalad (0 to 100 scale, 0 is no effect and 100 is complete control) [26]: 70
- Plant response rating, Rice (0 to 100 scale, 0 is no effect and 100 is complete control) (rice (Oryza sativa)): 65
- Plant response rating, Sedge, Umbrella (0 to 100 scale, 0 is no effect and 100 is complete control) [27]: 80
